Laboratory results as given in US12391737B2, “Soluble NPY2 receptor agonists” (Boehringer Ingelheim International GmbH, priority 2020, dated 2025).
*1 amine or outer side, *2 acyl side, *3 side chain or, on linkers, in order; H or OH if unused. Where a SMILES comes first, the peptide text is derived from it. Side-chain parts run from the residue outwards. The star is where a group is joined. C18 diacid = O=C(O)CCCCCCCCCCCCCCCCC(=O)*; γGlu = O=C(O)[C@H](CCC(=O)[*:2])N[*:1]; Isovaleryl = CC(C)CC(=O)*; Ahx = NCCCCCC(=O)O

What was measured:
[1] = biological target: T1, Human Neuropeptide Y2 Receptor (Homo sapiens, UniProt P49146); test: Radioligand binding competition assay (RLB); conditions: Table 3, 125I-PYY(1-36) competition; read-out: Ki
T1 construct: purchased CHEMICON HTS066M
T1 sequence (P49146 1-381): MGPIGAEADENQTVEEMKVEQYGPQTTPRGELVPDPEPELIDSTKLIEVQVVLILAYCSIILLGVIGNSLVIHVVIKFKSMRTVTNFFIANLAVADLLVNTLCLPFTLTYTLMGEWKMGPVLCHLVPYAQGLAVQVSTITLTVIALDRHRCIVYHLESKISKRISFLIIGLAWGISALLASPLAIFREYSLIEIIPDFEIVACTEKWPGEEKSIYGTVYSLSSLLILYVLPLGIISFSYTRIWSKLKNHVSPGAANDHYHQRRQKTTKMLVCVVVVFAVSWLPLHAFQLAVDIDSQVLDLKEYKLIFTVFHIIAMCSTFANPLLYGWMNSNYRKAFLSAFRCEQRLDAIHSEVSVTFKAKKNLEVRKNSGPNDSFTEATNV
Summary of the method: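 Receptor membranes, 0.5 μg/well; buffer 50 mM HEPES/5 mM MgCl2/1 mM CaCl2/0.2% ovalbumin, pH 7.4; 2 h RT, shaking. GF/C filtration, cold HEPES/500 mM NaCl wash, scintillation count. IC50 by nonlinear regression.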

Solubility determination = conditions: for Sol6: pH 6; for Sol7: pH 7
Summary of the method: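 Solubility is derived from the ratio of reversed-phase peak areas, filtered sample over a control dissolved at 1 mg/ml in 50% acetonitrile. Peptides are agitated for 2 hours at room temperature in 0.1 M sodium diphosphate at pH 6.4 or 7.0, aiming at 10 mg/ml.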

[2] = biological target: T2, human NPY5 receptor (hY5R) (Homo sapiens, UniProt Q15761); test: HTRF cAMP Gi assay, hY5R
T2 sequence (Q15761 1-445): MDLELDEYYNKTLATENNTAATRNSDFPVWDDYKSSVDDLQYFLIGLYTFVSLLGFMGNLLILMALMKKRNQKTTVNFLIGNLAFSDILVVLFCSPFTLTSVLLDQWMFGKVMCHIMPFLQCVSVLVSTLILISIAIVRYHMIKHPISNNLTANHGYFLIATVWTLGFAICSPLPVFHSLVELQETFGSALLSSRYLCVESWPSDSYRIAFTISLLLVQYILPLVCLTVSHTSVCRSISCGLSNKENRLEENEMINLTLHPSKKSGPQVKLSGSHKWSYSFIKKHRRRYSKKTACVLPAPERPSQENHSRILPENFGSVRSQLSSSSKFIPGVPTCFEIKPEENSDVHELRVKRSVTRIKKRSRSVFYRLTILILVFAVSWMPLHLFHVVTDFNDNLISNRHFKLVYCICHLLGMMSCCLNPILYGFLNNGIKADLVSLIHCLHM

Compound	Ki [1] [nM]	Sol6 (Solubility determination) [mg/mL]	Sol7 (Solubility determination) [mg/mL]	EC50 [2] [nM]
CC(C)CC(=O)N[C@@H](C)C(=O)N1CCC[C@H]1C(=O)N[C@@H](CCC(=O)O)C(=O)N[C@@H](CCCCNC(=O)CCCCCNC(=O)CC[C@H](NC(=O)CCCCCCCCCCCCCCCCC(=O)O)C(=O)O)C(=O)N1CCC[C@H]1C(=O)N[C@@H](CCC(=O)O)C(=O)N[C@@H](CCC(=O)O)C(=O)N[C@@H](CC(=O)O)C(=O)N[C@@H](C)C(=O)N[C@@H](CO)C(=O)N1CCC[C@H]1C(=O)N[C@@H](CCC(=O)O)C(=O)N[C@@H](CCC(=O)O)C(=O)N[C@@H](CC(C)C)C(=O)N[C@@H](CCC(N)=O)C(=O)N[C@@H](CCCNC(=N)N)C(=O)N[C@@H](Cc1ccc(O)cc1)C(=O)N[C@@H](Cc1ccc(O)cc1)C(=O)N[C@H](C(=O)N[C@@H](CO)C(=O)N[C@@H](CC(C)C)C(=O)N[C@@H](CCCNC(=N)N)C(=O)N[C@@H](Cc1c[nH]cn1)C(=O)N[C@@H](Cc1ccc(O)cc1)C(=O)N[C@@H](Cc1ccc(O)cc1)C(=O)N[C@@H](CC(N)=O)C(=O)N[C@@H](Cc1c[nH]c2ccccc12)C(=O)N[C@@H](CC(C)C)C(=O)N[C@H](C(=O)N[C@@H](CCCNC(=N)N)C(=O)N[C@@H](CCC(N)=O)C(=O)N[C@@H](CCCNC(=N)N)C(=O)N[C@@H](Cc1ccc(O)cc1)C(N)=O)[C@@H](C)O)C(C)C [Compound 79, N{alpha-4}-(3-methylbutanoyl)-N{epsilon-7}-(6-[(4S)-4-carboxy-4-(17-carboxyheptadecanamido)butanamido]hexanoyl)-[4A,7K,9E,18Q,22V,28Y,30W,31L]-hPYY(4-36)]	1.54	10.0	10.0	> 5000
CC(C)CC(=O)N[C@@H](C)C(=O)N1CCC[C@H]1C(=O)N[C@@H](CCC(=O)O)C(=O)N[C@@H](CCCCNC(=O)CCCCCNC(=O)CC[C@H](NC(=O)CCCCCCCCCCCCCCCCC(=O)O)C(=O)O)C(=O)N1CCC[C@H]1C(=O)N[C@@H](CCC(=O)O)C(=O)N[C@@H](CCC(=O)O)C(=O)N[C@@H](CC(=O)O)C(=O)N[C@@H](C)C(=O)N[C@@H](CCC(=O)O)C(=O)N1CCC[C@H]1C(=O)N[C@@H](CCC(=O)O)C(=O)N[C@@H](CCC(=O)O)C(=O)N[C@@H](CC(C)C)C(=O)N[C@@H](CCC(N)=O)C(=O)N[C@@H](CCCNC(=N)N)C(=O)N[C@@H](Cc1ccc(O)cc1)C(=O)N[C@@H](Cc1ccc(O)cc1)C(=O)N[C@H](C(=O)N[C@@H](CO)C(=O)N[C@@H](CC(C)C)C(=O)N[C@@H](CCCNC(=N)N)C(=O)N[C@@H](Cc1c[nH]cn1)C(=O)N[C@@H](Cc1ccc(O)cc1)C(=O)N[C@@H](Cc1ccc(O)cc1)C(=O)N[C@@H](Cc1c[nH]cn1)C(=O)N[C@@H](Cc1c[nH]c2ccccc12)C(=O)N[C@@H](CC(C)C)C(=O)N[C@H](C(=O)N[C@@H](CCCNC(=N)N)C(=O)N[C@@H](CCC(N)=O)C(=O)N[C@@H](CCCNC(=N)N)C(=O)N[C@@H](Cc1ccc(O)cc1)C(N)=O)[C@@H](C)O)[C@@H](C)O [Compound 91, N{alpha-4}-(3-methylbutanoyl)-N{epsilon-7}-(6-[(4S)-4-carboxy-4-(17-carboxyheptadecanamido)butanamido]hexanoyl)-[4A,7K,9E,13E,18Q,22T,28Y,29H,30W,31L]-hPYY(4-36)] (Isovaleryl-APEK([Ahx-γGlu-C18 diacid])PEEDAEPEELQRYYTSLRHYYHWLTRQRY-NH2)	4.64	8.9	9.4	≥ 5000
CC[C@H](C)[C@H](NC(=O)[C@H](CCC(=O)O)NC(=O)[C@H](CCC(=O)O)NC(=O)[C@@H]1CCCN1C(=O)[C@H](CO)NC(=O)[C@H](C)NC(=O)[C@H](CC(=O)O)NC(=O)[C@H](C)NC(=O)[C@H](CCC(=O)O)NC(=O)[C@@H]1CCCN1C(=O)[C@H](CCCCNC(=O)CCCCCNC(=O)CC[C@H](NC(=O)CCCCCCCCCCCCCCCCC(=O)O)C(=O)O)NC(=O)[C@H](CCC(=O)O)NC(=O)[C@@H]1CCCN1C(=O)[C@H](C)NC(=O)CC(C)C)C(=O)N[C@@H](CCC(N)=O)C(=O)N[C@@H](CCCNC(=N)N)C(=O)N[C@@H](Cc1ccc(O)cc1)C(=O)N[C@@H](Cc1ccc(O)cc1)C(=O)N[C@H](C(=O)N[C@@H](CO)C(=O)N[C@@H](CC(C)C)C(=O)N[C@@H](CCCNC(=N)N)C(=O)N[C@@H](Cc1c[nH]cn1)C(=O)N[C@@H](Cc1ccc(O)cc1)C(=O)N[C@@H](Cc1ccc(O)cc1)C(=O)N[C@@H](CC(N)=O)C(=O)N[C@@H](Cc1c[nH]c2ccccc12)C(=O)N[C@@H](CC(C)C)C(=O)N[C@H](C(=O)N[C@@H](CCCNC(=N)N)C(=O)N[C@@H](CCC(N)=O)C(=O)N[C@@H](CCCNC(=N)N)C(=O)N[C@@H](Cc1ccc(O)cc1)C(N)=O)[C@@H](C)O)C(C)C [Compound 140, N{alpha-4}-(3-methylbutanoyl)-N{epsilon-7}-(6-[(4S)-4-carboxy-4-(17-carboxyheptadecanamido)butanamido]hexanoyl)-[4A,7K,9E,10A,17I,18Q,22V,28Y,30W,31L]-hPYY(4-36)]	1.41	9.9	9.3	> 5000
CC(C)CC(=O)N[C@@H](C)C(=O)N1CCC[C@H]1C(=O)N[C@@H](C)C(=O)N[C@@H](CCCCNC(=O)CCCCCNC(=O)CC[C@H](NC(=O)CCCCCCCCCCCCCCCCC(=O)O)C(=O)O)C(=O)N1CCC[C@H]1C(=O)N[C@@H](CCC(=O)O)C(=O)N[C@@H](CCC(=O)O)C(=O)N[C@@H](CC(=O)O)C(=O)N[C@@H](C)C(=O)N[C@@H](CO)C(=O)N1CCC[C@H]1C(=O)N[C@@H](CCC(=O)O)C(=O)N[C@@H](CCC(=O)O)C(=O)N[C@@H](CC(C)C)C(=O)N[C@@H](CCC(N)=O)C(=O)N[C@@H](CCCNC(=N)N)C(=O)N[C@@H](Cc1ccc(O)cc1)C(=O)N[C@@H](Cc1ccc(O)cc1)C(=O)N[C@H](C(=O)N[C@@H](CO)C(=O)N[C@@H](CC(C)C)C(=O)N[C@@H](CCCNC(=N)N)C(=O)N[C@@H](Cc1c[nH]cn1)C(=O)N[C@@H](Cc1ccc(O)cc1)C(=O)N[C@@H](Cc1ccc(O)cc1)C(=O)N[C@@H](CC(N)=O)C(=O)N[C@@H](Cc1c[nH]c2ccccc12)C(=O)N[C@@H](CC(C)C)C(=O)N[C@H](C(=O)N[C@@H](CCCNC(=N)N)C(=O)N[C@@H](CCC(N)=O)C(=O)N[C@@H](CCCNC(=N)N)C(=O)N[C@@H](Cc1ccc(O)cc1)C(N)=O)[C@@H](C)O)C(C)C [Compound 145, N{alpha-4}-(3-methylbutanoyl)-N{epsilon-7}-(6-[(4S)-4-carboxy-4-(17-carboxyheptadecanamido)butanamido]hexanoyl)-[4A,6A,7K,9E,18Q,22V,28Y,30W,31L]-hPYY(4-36)]	5.29	7.2	9.0	> 5000
CC[C@H](C)[C@H](NC(=O)[C@H](CCC(=O)O)NC(=O)[C@H](CCC(=O)O)NC(=O)[C@@H]1CCCN1C(=O)[C@H](CO)NC(=O)[C@H](C)NC(=O)[C@H](CC(=O)O)NC(=O)[C@H](CCC(=O)O)NC(=O)[C@H](CCC(=O)O)NC(=O)[C@@H]1CCCN1C(=O)[C@H](CCCCNC(=O)CCCCCNC(=O)CC[C@H](NC(=O)CCCCCCCCCCCCCCCCC(=O)O)C(=O)O)NC(=O)[C@H](CCC(=O)O)NC(=O)[C@@H]1CCCN1C(=O)[C@H](C)NC(=O)CC(C)C)C(=O)N[C@@H](CCC(N)=O)C(=O)N[C@@H](CCCNC(=N)N)C(=O)N[C@@H](Cc1ccc(O)cc1)C(=O)N[C@@H](Cc1ccc(O)cc1)C(=O)N[C@H](C(=O)N[C@@H](CO)C(=O)N[C@@H](CC(C)C)C(=O)N[C@@H](CCCNC(=N)N)C(=O)N[C@@H](Cc1c[nH]cn1)C(=O)N[C@@H](Cc1ccc(O)cc1)C(=O)N[C@@H](Cc1ccc(O)cc1)C(=O)N[C@@H](CC(N)=O)C(=O)N[C@@H](Cc1c[nH]c2ccccc12)C(=O)N[C@@H](CC(C)C)C(=O)N[C@H](C(=O)N[C@@H](CCCNC(=N)N)C(=O)N[C@@H](CCC(N)=O)C(=O)N[C@@H](CCCNC(=N)N)C(=O)N[C@@H](Cc1ccc(O)cc1)C(N)=O)[C@@H](C)O)C(C)C [Compound 147, N{alpha-4}-(3-methylbutanoyl)-N{epsilon-7}-(6-[(4S)-4-carboxy-4-(17-carboxyheptadecanamido)butanamido]hexanoyl)-[4A,7K,9E,17I,18Q,22V,28Y,30W,31L]-hPYY(4-36)]	5.04	9.4	9.2	> 5000
